Results published in patent publication US20090124539A1, “Methods of treating infection” (priority 2007, published 2009).
Values after ≈ are worked out from the molar mass of the structure shown. Where two headings read alike, the source gives them in different places.

Experiments:
[1] = system: Streptococcus pneumoniae; assay: MIC, broth microdilution (CLSI); assay type: cell-based; conditions: Streptococcus pneumoniae, read-out: MIC
Experimental: (§1) The solvent for all of the compounds was deionized water (DIW), and all of the compounds dissolved in the solvent. The stock solutions were allowed to stand in DIW for one hour at room temperature prior to testing to allow time for auto-sterilization.
(§2) The test organisms were originally received from clinical sources, or from the American Type Culture Collection. When received, the organisms were sub-cultured onto an appropriate agar medium. Following incubation, colonies were harvested from these plates and cell suspensions prepared and frozen at −80° C. On the day prior to assay, a frozen vial of each culture was thawed and the contents were streaked for isolation onto either Tryptic Soy Agar (Becton Dickinson, Sparks, Md.) or Tryptic Soy Agar (Enhanced Hemolysis; Becton Dickinson) supplemented with 5% sheep blood for streptococci. The agar plates were incubated overnight at 35° C. Staphylococcus aureus ATCC 29213 and Enterococcus faecalis ATCC 29212 were included as quality control isolates in the assay.
(§3) The test medium for the broth microdilution testing was Mueller Hinton II broth (MHB II; BBL# 212322, Lot # 6024003, Becton Dickinson). The broth was prepared at 1.05× normal weight/volume to offset the 5% volume of the drug solution in the final test plates.
For streptococci, lysed horse blood (Lot # H88621; Cleveland Scientific, Bath, Ohio) was added to the MHB II at a final concentration of 2%. […]
(§4) MIC values were determined using a broth microdilution method as recommended by the Clinical and Laboratory Standards Institute (Clinical and Laboratory Standards Institute^a. Methods for Dilution Antimicrobial Susceptibility Tests for Bacteria That Grow Aerobically; Approved Standard-Seventh Edition. Clinical and Laboratory Standards Institute document M7-A7 [ISBN 1-56238-587-9]. Clinical and Laboratory Standards Institute, 940 West Valley Road, Suite 1400, Wayne, Pa. 19087-1898 USA, 2006). Automated liquid handlers (Multidrop 384, Labsystems, Helsinki, Finland; Biomek 2000 and Multimek 96, Beckman Coulter, Fullerton Calif.) were used to conduct serial dilutions and make liquid transfers.
(§5) Wells of two standard 96-well microdilution plates (Falcon 3918; Becton Dickinson) were filled with 150 μL of […] using the Multidrop 384. These plates were used to prepare the drug “mother plates” that provided the serial drug dilutions for replicate “daughter plates”. The Biomek 2000 was used to transfer 150 μl of each stock solution from the wells of column 1 of a deep well plate to the corresponding wells in column 1 of the mother plate and to make eleven 2-fold serial dilutions in the mother plates. The wells of column 12 contained no drug and were the organism growth control wells. Each mother plate has the capacity to create a total of 12 daughter plates.
(§6) The daughter plates were loaded with 180 μL of one of the media described above using the Multidrop 384. The wells of the daughter plates ultimately contained 180 μL of MHB II, 10 μL of drug solution, and 10 μL of bacterial inoculum prepared in broth appropriate to the test organism (1.05×). The daughter plates were prepared on the Multimek 96 instrument, which transferred 10 μL of drug solution from each well of the mother plate to each corresponding well of each daughter plate in a single step.
Standardized inoculum of each organism was prepared following Clinical and Laboratory Standards Institute (Clinical and Laboratory Standards Institute^b. Performance Standards for Antimicrobial Susceptibility Testing; Sixteenth Informational Supplement. CLSI document M100-S16 [ISBN 1-56238-588-7]. Clinical and Laboratory Standards Institute, 940 West Valley Road, Suite 1400, Wayne, Pa. 19087-1898 USA, 2006) methods. The inoculum for each organism was dispensed into sterile reservoirs divided by length (Beckman Coulter), and the Biomek 2000 was used to inoculate the plates. […]

[2] = system: Enterococcus faecalis; conditions: quality control range for Enterococcus faecalis ATCC 29212 (# 101); cited from earlier work
[3] = system: Enterococcus faecalis; assay: MIC, broth microdilution (CLSI); assay type: cell-based; conditions: Enterococcus faecalis, read-out: MIC
Experimental: as §1, §2, §3
(§7) CLSI guidelines recommend that Mueller-Hinton II broth be adjusted to contain 50 mg/L of Ca^++ ions for proper daptomycin MIC results. Since Mueller-Hinton II broth has already been adjusted by the manufacturer to contain approximately 25 mg/L of Ca^++ ions, an additional 25 mg/L of Ca^++ ions was adjusted with 10 mg/mL of CaCl2.2H2O (Lot# 084K0215; Sigma-Aldrich) added at a rate of 0.1 mL/L of broth, for each desired increment of 1 mg/L. This supplemented Mueller-Hinton II broth was used only in wells containing daptomycin.
as §4, §5
as §6, with “step. […]” for “step.”

[4] = system: Staphylococcus epidermidis; assay: MIC, broth microdilution (CLSI); assay type: cell-based; conditions: read-out: MIC
Experimental: as §1, §2, §3, §7, §4, §5
as §6, with “step. […]” for “step.”

[5] = system: Enterococcus faecium; assay: MIC, broth microdilution (CLSI); assay type: cell-based; conditions: Enterococcus faecium, read-out: MIC
Experimental: (§8) The stock solutions were allowed to stand in DIW for one hour at room temperature prior to testing to allow time for auto-sterilization.
as §2, §3, §7, §4, §5, §6

[6] = system: Staphylococcus aureus; assay: MIC, broth microdilution (CLSI); assay type: cell-based; conditions: Staphylococcus aureus, read-out: MIC
Experimental: as §8, §2, §3, §7, §4, §5, §6

[7] = system: Staphylococcus aureus; conditions: quality control range for Staphylococcus aureus ATCC 29213 (# 100); cited from earlier work
[8] = system: Streptococcus pyogenes; assay: MIC, broth microdilution (CLSI); assay type: cell-based
Experimental: as §1, §2, §3
For streptococci, lysed horse blood (Lot # H88621; Cleveland Scientific, Bath, Ohio) was added to the MHB II at a final concentration of 2%.
as §7, §4, §5
as §6, with “step. […]” for “step.”

[9] = Streptococcus pneumoniae Micromyx # 374, Wild type
[10] = Streptococcus pneumoniae Micromyx # 379, parC, gyrA, gyrB
[11] = Streptococcus pneumoniae Micromyx # 927, mef(A)
[12] = Streptococcus pneumoniae Micromyx # 928, erm(B)
[13] = ATCC29212, Enterococcus faecalis Micromyx # 101, VSE, CLSI QC strain (ATCC 29212)
[14] = Enterococcus faecalis Micromyx # 413, LZD^R from res. dev. or other
[15] = Enterococcus faecalis Micromyx # 486, Van A
[16] = Enterococcus faecalis Micromyx # 1088, Van B
[17] = Staphylococcus epidermidis Micromyx # 108, MRSE
[18] = Staphylococcus epidermidis Micromyx # 835, MSSE
[19] = Enterococcus faecium Micromyx # 750, Van^S
[20] = Enterococcus faecium Micromyx # 1721, DAP^R
[21] = ATCC 29213 / MSSA, Staphylococcus aureus Micromyx # 100, MSSA, CLSI QC strain (ATCC 29213)
[22] = MRSA, Staphylococcus aureus Micromyx # 1004, MRSA, FA^R
[23] = MRSA, Staphylococcus aureus Micromyx # 1730, Community-acquired MRSA
[24] = MSSA, Staphylococcus aureus Micromyx # 1002, MSSA, macrolide^R
[25] = Staphylococcus aureus Micromyx # 1016, FA^R
[26] = Staphylococcus aureus Micromyx # 1727, GM^R
[27] = Staphylococcus aureus Micromyx # 1731, CHL^R
[28] = Streptococcus pyogenes Micromyx # 942, macrolide^R
[29] = Streptococcus pyogenes Micromyx # 985, Susceptible, read-out: MIC

SMILES: Cc1onc(-c2ccccc2)c1C(=O)N[C@@H]1C(=O)N2[C@@H]1SC(C)(C)[C@@H]2C(=O)O [Oxacillin, oxacillin]
- MIC [1, 9]: 16 µg/mL (≈ 39.9 µM)
- MIC ([1]; Streptococcus pneumoniae Micromyx # 375, parC, gyrB): ≤ 0.12 µg/mL
- MIC ([1]; Streptococcus pneumoniae Micromyx # 376, parC, gyrA): ≤ 0.12 µg/mL
- MIC [1, 10]: ≤ 0.12 µg/mL
- MIC [1, 11]: 16 µg/mL (≈ 39.9 µM)
- MIC [1, 12]: 16 µg/mL (≈ 39.9 µM)
- MIC, CLSI Recommended Range [2]: 8 to 32 µg/mL
- MIC [3, 13]: 16 µg/mL (≈ 39.9 µM)
- MIC [3, 14]: 64 µg/mL (≈ 159 µM)
- MIC [3, 15]: 16 µg/mL (≈ 39.9 µM)
- MIC [3, 16]: 16 µg/mL (≈ 39.9 µM)
- MIC [4, 17]: 64 µg/mL (≈ 159 µM)
- MIC [4, 18]: ≤ 0.12 µg/mL
- MIC [5, 19]: 4 µg/mL (≈ 9.96 µM)
- MIC [5, 20]: 32 µg/mL (≈ 79.7 µM)
- MIC [6, 21]: 0.25 µg/mL (≈ 0.623 µM)
- MIC [6, 22]: 16 µg/mL (≈ 39.9 µM)
- MIC [6, 23]: 32 µg/mL (≈ 79.7 µM)
- MIC [6, 24]: 0.5 µg/mL (≈ 1.25 µM)
- MIC [6, 25]: 32 µg/mL (≈ 79.7 µM)
- MIC [6, 26]: 0.25 µg/mL (≈ 0.623 µM)
- MIC [6, 27]: 0.25 µg/mL (≈ 0.623 µM)
- MIC, CLSI Recommended Range [7]: 0.12 to 0.5 µg/mL
- MIC [8, 28]: ≦0.12 μg/mL
- MIC [8, 29]: ≤ 0.12 µg/mL

SMILES: CCCCCCCCCC(=O)N[C@@H](Cc1c[nH]c2ccccc12)C(=O)N[C@H](CC(N)=O)C(=O)N[C@@H](CC(=O)O)C(=O)N[C@@H]1C(=O)NCC(=O)N[C@@H](CCCN)C(=O)N[C@@H](CC(=O)O)C(=O)N[C@H](C)C(=O)N[C@@H](CC(=O)O)C(=O)NCC(=O)N[C@H](CO)C(=O)N[C@@H]([C@H](C)CC(=O)O)C(=O)N[C@@H](CC(=O)c2ccccc2N)C(=O)O[C@@H]1C [Daptomycin]
- MIC [1, 9]: ≤ 0.12 µg/mL
- MIC [1, 10]: 0.25 µg/mL (≈ 0.154 µM)
- MIC [1, 11]: ≤ 0.12 µg/mL
- MIC [1, 12]: ≤ 0.12 µg/mL
- MIC, CLSI Recommended Range [2]: 1 to 4 µg/mL
- MIC [3, 13]: 1 µg/mL (≈ 0.617 µM)
- MIC [3, 14]: 0.5 µg/mL (≈ 0.309 µM)
- MIC [3, 15]: 0.5 µg/mL (≈ 0.309 µM)
- MIC [3, 16]: 1 µg/mL (≈ 0.617 µM)
- MIC [4, 17]: 0.5 µg/mL (≈ 0.309 µM)
- MIC [4, 18]: 0.5 µg/mL (≈ 0.309 µM)
- MIC [5, 19]: ≤ 0.12 µg/mL
- MIC ([5]; Enterococcus faecium Micromyx # 752, Van A): 2 µg/mL (≈ 1.23 µM)
- MIC ([5]; Enterococcus faecium Micromyx # 1120, Van B): 2 µg/mL (≈ 1.23 µM)
- MIC [5, 20]: 8 µg/mL (≈ 4.94 µM)
- MIC [6, 21]: 0.5 µg/mL (≈ 0.309 µM)
- MIC [6, 22]: 0.25 µg/mL (≈ 0.154 µM)
- MIC [6, 23]: 0.5 µg/mL (≈ 0.309 µM)
- MIC [6, 24]: 0.5 µg/mL (≈ 0.309 µM)
- MIC ([6]; Staphylococcus aureus Micromyx # 106, RA^R): 0.5 µg/mL (≈ 0.309 µM)
- MIC [6, 25]: 0.25 µg/mL (≈ 0.154 µM)
- MIC ([6]; Staphylococcus aureus Micromyx # 1651, LZD^R clinical isolate): 0.5 µg/mL (≈ 0.309 µM)
- MIC [6, 26]: 0.25 µg/mL (≈ 0.154 µM)
- MIC [6, 27]: 0.25 µg/mL (≈ 0.154 µM)
- MIC ([6]; VISA, Staphylococcus aureus Micromyx # 1723, VISA): 1 µg/mL (≈ 0.617 µM)
- MIC, CLSI Recommended Range [7]: 0.25 to 1 µg/mL
- MIC [8, 28]: ≦0.12 μg/mL
- MIC [8, 29]: ≤ 0.12 µg/mL
